From patent US11211249B2, “Herbal extracts and flavor systems for oral products and methods of making the same” (Sensient Flavors LLC, priority 2008, dated 2021) come the findings set out here.

This series is described as follows: Flavor release from chewing gum, mechanical mastication device with artificial saliva. The note with it: chewing gum with 2% flavor system. In kind it is physicochemical. The method, then: To test if adequate flavor is released from chewing gum, the chewing gums made in Example 5 were tested using a mechanical instrument to simulate human mastication of chewing gum, which can be found in Kleber et al. A mastication device designed for the evaluation of chewing gum is set forth in Journal of Dental Research, 1981, 109-114, which is incorporated herein in its entirety. Artificial saliva (15 ml) was placed in the reservoir, and the thermostatically controlled heating element was turned on to maintain the saliva and gum at body temperature for proper chewing consistency. One stick of test chewing gum (approximately 3 grams with 2% flavor system added) was placed in the warmed chamber and the artificial saliva was exposed to the chewing gum for 1 minute under chewing simulation conditions. All the artificial saliva (15 ml) was removed as quickly as possible with a pipette, delivered immediately into a glass bottle and sealed. The saliva was replaced with a fresh 15 ml aliquot, the chewing conditions restarted and the gum samples were treated for another minute. […] Two markers, Marker 1, thymol, and Marker 2, menthol, were selected to monitor flavor release based on quantity and antimicrobial efficiency. […] It was estimated that enough flavor was released during the first 15-20 minutes to have antimicrobial activity based on the quantity released and the MIC results.

For `Cc1ccc(C(C)C)c(O)c1` [Marker 1, thymol], the “release course over time of chewing” value is “released constantly for the first 10 minutes and afterward decreases”.
